# Measurements as given in patent US20250231185A1, “Coronavirus T Cell Epitopes, Megapools and Uses Thereof” (La Jolla Institute for Immunology, priority 2021, published 2025).
# Tested on: CD8+ T cells
# Experiment: Meta-analysis of published SARS-CoV-2 CD8 T cell epitope data curated in the IEDB (25 studies)
# Type: cell-based, human
# Details: CD8-restricted SARS-CoV-2 epitopes; Yes = recognized by 3 or more donors/different studies
row,Substance,Dominant
1,1187 (IQYIDIGNY) [compound 1187],Yes (more dominant epitopes are defined by being recognized by 3 or more donors/different studies)
2,1287 (CVADYSVLY) [compound 1287],Yes (more dominant epitopes are defined by being recognized by 3 or more donors/different studies)
3,1291 (KCYGVSPTK) [compound 1291],Yes (more dominant epitopes are defined by being recognized by 3 or more donors/different studies)
4,1173 (QLRARSVSPK) [compound 1173],Yes (more dominant epitopes are defined by being recognized by 3 or more donors/different studies)
5,1248 (IYSKHTPINL) [compound 1248],Yes (more dominant epitopes are defined by being recognized by 3 or more donors/different studies)
6,1181 (IMLIIFWFSL) [compound 1181],Yes (more dominant epitopes are defined by being recognized by 3 or more donors/different studies)
7,1260 (WTAGAAAYYVGY) [compound 1260],Yes (more dominant epitopes are defined by being recognized by 3 or more donors/different studies)
8,1157 (HLVDFQVTI) [compound 1157],Yes (more dominant epitopes are defined by being recognized by 3 or more donors/different studies)
9,1259 (WTAGAAAYY) [compound 1259],Yes (more dominant epitopes are defined by being recognized by 3 or more donors/different studies)
10,1107 (FVRATATIPI) [compound 1107],Yes (more dominant epitopes are defined by being recognized by 3 or more donors/different studies)
11,1251 (LPQGFSAL) [compound 1251],Yes (more dominant epitopes are defined by being recognized by 3 or more donors/different studies)
12,1298 (NLDSKVGGNY) [compound 1298],Yes (more dominant epitopes are defined by being recognized by 3 or more donors/different studies)
13,1109 (IPIQASLPF) [compound 1109],Yes (more dominant epitopes are defined by being recognized by 3 or more donors/different studies)
14,1150 (FTSDYYQLY) [compound 1150],Yes (more dominant epitopes are defined by being recognized by 3 or more donors/different studies)
15,1238 (SSANNCTFEY) [compound 1238],Yes (more dominant epitopes are defined by being recognized by 3 or more donors/different studies)
16,1180 (VFITLCFTLK) [compound 1180],Yes (more dominant epitopes are defined by being recognized by 3 or more donors/different studies)
17,1132 (YLYALVYFL) [compound 1132],Yes (more dominant epitopes are defined by being recognized by 3 or more donors/different studies)
18,1228 (TLDSKTQSL) [compound 1228],Yes (more dominant epitopes are defined by being recognized by 3 or more donors/different studies)

# Same assay, conditions: CD8S (D) Megapool, antigen S; dominant = recognized in 3 or more donors/studies
row,Substance,Dominant
1,1493 (IGAEHVNNSY) [compound 1493],Yes (more dominant epitopes are defined by being recognized by 3 or more donors/different studies)
2,1521 (SEPVLKGVKL) [compound 1521],Yes (more dominant epitopes are defined by being recognized by 3 or more donors/different studies)
3,1488 (NYNYLYRLF) [compound 1488],Yes (more dominant epitopes are defined by being recognized by 3 or more donors/different studies)
4,1506 (TQNVLYENQK) [compound 1506],Yes (more dominant epitopes are defined by being recognized by 3 or more donors/different studies)
5,1476 (FVFKNIDGY) [compound 1476],Yes (more dominant epitopes are defined by being recognized by 3 or more donors/different studies)
6,1485 (KIADYNYKL) [compound 1485],Yes (more dominant epitopes are defined by being recognized by 3 or more donors/different studies)
7,1494 (SPRRARSVA) [compound 1494],Yes (more dominant epitopes are defined by being recognized by 3 or more donors/different studies)
8,1515 (GTHWFVTQR) [compound 1515],Yes (more dominant epitopes are defined by being recognized by 3 or more donors/different studies)
9,1516 (RLNEVAKNL) [compound 1516],Yes (more dominant epitopes are defined by being recognized by 3 or more donors/different studies)
10,1502 (LLFNKVTLA) [compound 1502],Yes (more dominant epitopes are defined by being recognized by 3 or more donors/different studies)
11,1482 (RISNCVADY) [compound 1482],Yes (more dominant epitopes are defined by being recognized by 3 or more donors/different studies)
12,1483 (CVADYSVLY) [compound 1483],Yes (more dominant epitopes are defined by being recognized by 3 or more donors/different studies)
13,1477 (IYSKHTPINL) [compound 1477],Yes (more dominant epitopes are defined by being recognized by 3 or more donors/different studies)
14,1518 (QYIKWPWYI) [compound 1518],Yes (more dominant epitopes are defined by being recognized by 3 or more donors/different studies)
15,1490 (FQPTNGVGY) [compound 1490],Yes (more dominant epitopes are defined by being recognized by 3 or more donors/different studies)
16,1514 (VVFLHVTYV) [compound 1514],Yes (more dominant epitopes are defined by being recognized by 3 or more donors/different studies)
17,1489 (YFPLQSYGF) [compound 1489],Yes (more dominant epitopes are defined by being recognized by 3 or more donors/different studies)
18,1471 (RFDNPVLPF) [compound 1471],Yes (more dominant epitopes are defined by being recognized by 3 or more donors/different studies)
19,1491 (GPKKSTNLV) [compound 1491],Yes (more dominant epitopes are defined by being recognized by 3 or more donors/different studies)
20,1481 (YLQPRTFLL) [compound 1481],Yes (more dominant epitopes are defined by being recognized by 3 or more donors/different studies)

# Same assay, conditions: CD8 epitopes; Yes = recognized by 3 or more donors/different studies
row,Substance,Dominant
1,427 (FLFLTWICL) [compound 427],Yes (more dominant epitopes are defined by being recognized by 3 or more donors/different studies)
2,484 (RYRIGNYKL) [compound 484],Yes (more dominant epitopes are defined by being recognized by 3 or more donors/different studies)
3,442 (TLACFVLAAV) [compound 442],Yes (more dominant epitopes are defined by being recognized by 3 or more donors/different studies)
4,426 (KLLEQWNLV) [compound 426],Yes (more dominant epitopes are defined by being recognized by 3 or more donors/different studies)
5,498 (RIRGGDGKMK) [compound 498],Yes (more dominant epitopes are defined by being recognized by 3 or more donors/different studies)
6,457 (SMWSFNPET) [compound 457],Yes (more dominant epitopes are defined by being recognized by 3 or more donors/different studies)
7,499 (KMKDLSPRW) [compound 499],Yes (more dominant epitopes are defined by being recognized by 3 or more donors/different studies)
8,425 (GTITVEELK) [compound 425],Yes (more dominant epitopes are defined by being recognized by 3 or more donors/different studies)
9,477 (ASQRVAGDSGFAAY) [compound 477],Yes (more dominant epitopes are defined by being recognized by 3 or more donors/different studies)
10,475 (ATSRTLSYYK) [compound 475],Yes (more dominant epitopes are defined by being recognized by 3 or more donors/different studies)
11,494 (NTNSSPDDQIGYY) [compound 494],Yes (more dominant epitopes are defined by being recognized by 3 or more donors/different studies)

# Same assay, conditions: SARS-CoV-2-derived CD8 epitopes; dominant = recognized by 3 or more donors/different studies
row,Substance,Dominant
1,848 (TSEDMLNPNY) [compound 848],Yes (more dominant epitopes are defined by being recognized by 3 or more donors/different studies)
2,856 (FLNGSCGSV) [compound 856],Yes (more dominant epitopes are defined by being recognized by 3 or more donors/different studies)
3,747 (ILFTRFFYV) [compound 747],Yes (more dominant epitopes are defined by being recognized by 3 or more donors/different studies)
4,810 (FSAVGNICY) [compound 810],Yes (more dominant epitopes are defined by being recognized by 3 or more donors/different studies)
5,877 (KLKDCVMYA) [compound 877],Yes (more dominant epitopes are defined by being recognized by 3 or more donors/different studies)
6,781 (STFNVPMEK) [compound 781],Yes (more dominant epitopes are defined by being recognized by 3 or more donors/different studies)
7,887 (TLGVYDYLVST) [compound 887],Yes (more dominant epitopes are defined by being recognized by 3 or more donors/different studies)
8,874 (MPASWVMRI) [compound 874],Yes (more dominant epitopes are defined by being recognized by 3 or more donors/different studies)
9,860 (VLAWLYAAV) [compound 860],Yes (more dominant epitopes are defined by being recognized by 3 or more donors/different studies)
10,883 (NYSGVVTTVMF) [compound 883],Yes (more dominant epitopes are defined by being recognized by 3 or more donors/different studies)
11,745 (AYILFTRFFYV) [compound 745],Yes (more dominant epitopes are defined by being recognized by 3 or more donors/different studies)
12,737 (SLDTYPSLETI) [compound 737],Yes (more dominant epitopes are defined by being recognized by 3 or more donors/different studies)
13,852 (VRIQPGQTF) [compound 852],Yes (more dominant epitopes are defined by being recognized by 3 or more donors/different studies)
14,872 (FLLPSLATV) [compound 872],Yes (more dominant epitopes are defined by being recognized by 3 or more donors/different studies)
15,858 (GTDLEGNFY) [compound 858],Yes (more dominant epitopes are defined by being recognized by 3 or more donors/different studies)
16,719 (NYMPYFFTL) [compound 719],Yes (more dominant epitopes are defined by being recognized by 3 or more donors/different studies)
